Assay results as given in patent US12187723B2 (BRISTOL-MYERS SQUIBB COMPANY, priority 2019, dated 2025).
Structures can show the parent of a compound that is named as a salt.

Each molecule was assayed against T1, human TLR7 (Homo sapiens, UniProt Q9NYK1) (assay: TLR7 inhibition reporter assay (HEK-Blue SEAP)). Settings: HEK-Blue cells overexpressing human TLR7, gardiquimod 7.5 μM, 22 hour incubation.
T1 construct: host or cells: HEK-Blue cells
T1 sequence (Q9NYK1 27-1049): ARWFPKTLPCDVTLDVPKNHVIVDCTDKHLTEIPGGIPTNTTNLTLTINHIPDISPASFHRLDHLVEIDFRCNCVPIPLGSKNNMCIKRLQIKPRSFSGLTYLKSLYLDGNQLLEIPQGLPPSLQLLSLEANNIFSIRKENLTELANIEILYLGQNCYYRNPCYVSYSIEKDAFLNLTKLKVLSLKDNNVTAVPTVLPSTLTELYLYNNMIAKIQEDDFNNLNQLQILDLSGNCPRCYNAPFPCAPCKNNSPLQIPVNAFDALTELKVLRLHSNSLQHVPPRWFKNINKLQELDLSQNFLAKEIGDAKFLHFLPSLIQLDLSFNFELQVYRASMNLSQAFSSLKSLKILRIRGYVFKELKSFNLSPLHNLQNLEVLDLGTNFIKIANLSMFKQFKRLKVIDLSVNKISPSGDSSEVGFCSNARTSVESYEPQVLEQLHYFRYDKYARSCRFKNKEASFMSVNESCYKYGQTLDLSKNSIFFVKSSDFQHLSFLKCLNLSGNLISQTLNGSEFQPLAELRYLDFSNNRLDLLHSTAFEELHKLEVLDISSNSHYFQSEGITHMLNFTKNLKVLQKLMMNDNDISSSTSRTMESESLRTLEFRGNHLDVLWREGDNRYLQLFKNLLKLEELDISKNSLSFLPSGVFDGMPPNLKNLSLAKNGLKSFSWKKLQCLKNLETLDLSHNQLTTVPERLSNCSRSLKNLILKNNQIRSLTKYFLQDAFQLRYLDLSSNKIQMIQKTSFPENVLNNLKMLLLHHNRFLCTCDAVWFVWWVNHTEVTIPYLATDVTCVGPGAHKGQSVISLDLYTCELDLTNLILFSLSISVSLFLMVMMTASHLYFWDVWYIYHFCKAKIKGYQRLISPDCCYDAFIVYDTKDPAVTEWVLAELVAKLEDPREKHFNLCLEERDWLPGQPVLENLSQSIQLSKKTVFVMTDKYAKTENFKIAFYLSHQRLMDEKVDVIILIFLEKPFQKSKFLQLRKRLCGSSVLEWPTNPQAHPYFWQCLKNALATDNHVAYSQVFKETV
Assay type: cell-based
Method in brief: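 HEK-Blue reporter cells (15,000/well TLR7, 20,000 TLR8) exposed to compound over 0.05 nM–50 μM, agonist-stimulated (R848 for TLR8, gardiquimod for TLR7), 22 h at 37 °C, 5% CO2. SEAP read with HEK-Blue Detection; % inhibition relative to agonist-plus-DMSO and known-inhibitor controls.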

| Structure (SMILES) | IC50 |
| --- | --- |
| CCc1cc2c(cc1-c1cc(OC)c3ncnn3c1)[nH]c(=O)n2[C@@H]1CCCNC1 [119 FB, (R)-6-ethyl-5-(8-methoxy-[1,2,4]triazolo[1,5-a]pyridin-6-yl)-1-(piperidin-3-yl)-1,3-dihydro-2H-benzo[d]imidazol-2-one] | 5.47 nM |
| Cc1cc2c(cc1-c1cc(C)c3ncnn3c1)[nH]c(=O)n2[C@@H]1CCCN(C2COC2)C1 [Example 18, (R)-6-methyl-5-(8-methyl-[1,2,4]triazolo[1,5-a]pyridin-6-yl)-1-(1-(oxetan-3-yl)piperidin-3-yl)-1,3-dihydro-2H-benzo[d]imidazol-2-one] | 409 nM |
| Cc1cc2c(cc1-c1cc(C)c3ncnn3c1)[nH]c(=O)n2[C@H]1CC[C@H](N)CC1 [1 EF, 1-((1r,4r)-4-aminocyclohexyl)-6-methyl-5-(8-methyl-[1,2,4]triazolo[1,5-a]pyridin-6-yl)-1,3-dihydro-2H-benzo[d]imidazol-2-one] | 40.7 nM |
| Cc1cc2c(cc1-c1cc(C)c3ncnn3c1)[nH]c(=O)n2[C@H]1CC[C@@H](N)CC1 [1 EE] | 19.3 nM |
| Cc1cc2c(cc1-c1cc(C)c3ncnn3c1)[nH]c(=O)n2[C@@H]1CCCN(C2CCOCC2)C1 [Example 27, (R)-6-methyl-5-(8-methyl-[1,2,4]triazolo[1,5-a]pyridin-6-yl)-1-(1-(tetrahydro-2H-pyran-4-yl)piperidin-3-yl)-1,3-dihydro-2H-benzo[d]imidazol-2-one] | 79.5 nM |
| COc1cc(-c2cc3[nH]c(=O)n(C4CCC(N5C6CCC5COC6)CC4)c3cc2C(C)C)cn2ncnc12 (single isomer, unassigned) [Example 252, 1-(4-(3-oxa-8-azabicyclo[3.2.1]octan-8-yl)cyclohexyl)-6-isopropyl-5-(8-methoxy-[1,2,4]triazolo[1,5-a]pyridin-6-yl)-1,3-dihydro-2H-benzo[d]imidazol-2-one] | 40.5 nM |
| Cc1c(-c2cc3[nH]c(=O)n([C@@H]4CCCNC4)c3cc2C(C)C)cn2ncnc2c1C [119 FC, (R)-5-(7,8-dimethyl-[1,2,4]triazolo[1,5-a]pyridin-6-yl)-6-isopropyl-1-(piperidin-3-yl)-1,3-dihydro-2H-benzo[d]imidazol-2-one] | 3.26 nM |
| COc1cc(-c2cc3[nH]c(=O)n(C4CCNCC4)c3cc2C)cn2ncnc12 [1 E, 5-(8-methoxy-[1,2,4]triazolo[1,5-a]pyridin-6-yl)-6-methyl-1-(piperidin-4-yl)-1H-benzo[d]imidazol-2(3H)-one, TFA] | 366 nM |
| Cc1cc(-c2cc(C)c3ncnn3c2)cc2[nH]c(=O)n(C3CCNCC3)c12 [106 F, 7-methyl-5-(8-methyl-[1,2,4]triazolo[1,5-a]pyridin-6-yl)-1-(piperidin-4-yl)-1,3-dihydro-2H-benzo[d]imidazol-2-one] | 50.5 nM |
| Cc1cc2c(cc1-c1cc(C)c3ncnn3c1)[nH]c(=O)n2[C@@H]1CCCN(CC(C)(C)C)C1 [Example 26, (R)-6-methyl-5-(8-methyl-[1,2,4]triazolo[1,5-a]pyridin-6-yl)-1-(1-neopentylpiperidin-3-yl)-1,3-dihydro-2H-benzo[d]imidazol-2-one] | 235 nM |
| CCC(C)N1CCC[C@@H](n2c(=O)[nH]c3cc(-c4cc(C)c5ncnn5c4)c(C)cc32)C1 (stereo partly drawn) [Example 28, 1-((3R)-1-(sec-butyl)piperidin-3-yl)-6-methyl-5-(8-methyl-[1,2,4]triazolo[1,5-a]pyridin-6-yl)-1,3-dihydro-2H-benzo[d]imidazol-2-one] | 27.3 nM |

Next, values leading:

| IC50 | Structure (SMILES) |
| --- | --- |
| 0.66 nM | COc1cc(-c2cc3[nH]c(=O)n(C4CCC(N5CCC(OC)C5)CC4)c3cc2C(C)C)cn2ncnc12 (centres unmarked) [Example 285, 6-isopropyl-5-(8-methoxy-[1,2,4]triazolo[1,5-a]pyridin-6-yl)-1-(4-(3-methoxypyrrolidin-1-yl)cyclohexyl)-1,3-dihydro-2H-benzo[d]imidazol-2-one] |
| 28.4 nM | COc1c(C)c(-c2cc3[nH]c(=O)n(C4CCC(N5CC(F)C5)CC4)c3cc2C(C)C)cn2ncnc12 (single isomer, unassigned) [Example 264, 1-(4-(3-fluoroazetidin-1-yl)cyclohexyl)-6-isopropyl-5-(8-methoxy-7-methyl-[1,2,4]triazolo[1,5-a]pyridin-6-yl)-1,3-dihydro-2H-benzo[d]imidazol-2-one] |
| 11.1 nM | Cc1cc2c(cc1-c1cc(C)c3ncnn3c1)[nH]c(=O)n2[C@H]1CC[C@@H](NCCC(F)(F)F)CC1 [Example 31] |
| 7.93 nM | COc1c(C)c(-c2cc3[nH]c(=O)n(C4CCC(N5CC(F)C5)CC4)c3cc2C(C)C)cn2ncnc12 (single isomer, unassigned) [Example 263, 1-(4-(3-fluoroazetidin-1-yl)cyclohexyl)-6-isopropyl-5-(8-methoxy-7-methyl-[1,2,4]triazolo[1,5-a]pyridin-6-yl)-1,3-dihydro-2H-benzo[d]imidazol-2-one] |
| 4.25 nM | COCCNC1CCC(n2c(=O)[nH]c3cc(-c4cn5ncnc5c(OC)c4C)c(C(C)C)cc32)CC1 (centres unmarked) [Example 258] |
| 10.4 nM | COc1c(C)c(-c2cc3[nH]c(=O)n(C4CCC(NCC5(S(C)(=O)=O)CC5)CC4)c3cc2C(C)C)cn2ncnc12 (single isomer, unassigned) [Example 259] |
| 7.88 nM | COC1CN(C2CCC(n3c(=O)[nH]c4cc(-c5cn6ncnc6c(C)c5C)c(C(C)C)cc43)CC2)C1 (single isomer, unassigned) [Example 278, 5-(7,8-dimethyl-[1,2,4]triazolo[1,5-a]pyridin-6-yl)-6-isopropyl-1-(4-(3-methoxyazetidin-1-yl)cyclohexyl)-1,3-dihydro-2H-benzo[d]imidazol-2-one] |
| 15.5 nM | COc1c(C)c(-c2cc3[nH]c(=O)n(C4CCC(N5CCCOCC5)CC4)c3cc2C(C)C)cn2ncnc12 (single isomer, unassigned) [Example 261, 1-(4-(1,4-oxazepan-4-yl)cyclohexyl)-6-isopropyl-5-(8-methoxy-7-methyl-[1,2,4]triazolo[1,5-a]pyridin-6-yl)-1,3-dihydro-2H-benzo[d]imidazol-2-one] |
| 2.39 nM | COC1CN(C2CCC(n3c(=O)[nH]c4cc(-c5cn6ncnc6c(C)c5C)c(C(C)C)cc43)CC2)C1 (single isomer, unassigned) [Example 277, 5-(7,8-dimethyl-[1,2,4]triazolo[1,5-a]pyridin-6-yl)-6-isopropyl-1-(4-(3-methoxyazetidin-1-yl)cyclohexyl)-1,3-dihydro-2H-benzo[d]imidazol-2-one] |
| 0.7 nM | COc1cc(-c2cc3[nH]c(=O)n(C4CCC(N5CC[C@H](F)C5)CC4)c3cc2C(C)C)cn2ncnc12 (stereo partly drawn) [Example 286, (S)-1-(4-(3-fluoropyrrolidin-1-yl)cyclohexyl)-6-isopropyl-5-(8-methoxy-[1,2,4]triazolo[1,5-a]pyridin-6-yl)-1,3-dihydro-2H-benzo[d]imidazol-2-one] |
| 4.91 nM | Cc1c(-c2cc3[nH]c(=O)n(C4CCC(N5CC(F)C5)CC4)c3cc2C(C)C)cn2ncnc2c1C (centres unmarked) [Example 280, 5-(7,8-dimethyl-[1,2,4]triazolo[1,5-a]pyridin-6-yl)-1-(4-(3-fluoroazetidin-1-yl)cyclohexyl)-6-isopropyl-1,3-dihydro-2H-benzo[d]imidazol-2-one] |
| 0.5 nM | COc1cc(-c2cc3[nH]c(=O)n(C4CCC(N(C)CCC(F)(F)F)CC4)c3cc2C(C)C)cn2ncnc12 (single isomer, unassigned) [Example 249, 6-isopropyl-5-(8-methoxy-[1,2,4]triazolo[1,5-a]pyridin-6-yl)-1-(4-(methyl(3,3,3-trifluoropropyl)amino)cyclohexyl)-1,3-dihydro-2H-benzo[d]imidazol-2-one] |
| 30.2 nM | COc1cc(-c2cc3[nH]c(=O)n(C4CCC(N5CCC(F)(F)CC5)CC4)c3cc2C(C)C)cn2ncnc12 (single isomer, unassigned) [Example 247, 1-(4-(4,4-difluoropiperidin-1-yl)cyclohexyl)-6-isopropyl-5-(8-methoxy-[1,2,4]triazolo[1,5-a]pyridin-6-yl)-1,3-dihydro-2H-benzo[d]imidazol-2-one] |
| 9.22 nM | Cc1c(-c2cc3[nH]c(=O)n(C4CCC(N5CCCC(F)C5)CC4)c3cc2C(C)C)cn2ncnc2c1C (centres unmarked) [Example 273, 5-(7,8-dimethyl-[1,2,4]triazolo[1,5-a]pyridin-6-yl)-1-(4-(3-fluoropiperidin-1-yl)cyclohexyl)-6-isopropyl-1,3-dihydro-2H-benzo[d]imidazol-2-one] |
| 10.9 nM | COc1cc(-c2cc3[nH]c(=O)n(C4CCC(N5C[C@@H](F)[C@@H](F)C5)CC4)c3cc2C(C)C)cn2ncnc12 (single isomer, unassigned) [Example 293] |
